Results as given in the NIST ThermoML archive (doi:10.1016/j.tca.2013.04.021).
Numbers after ± are expanded uncertainties.

Tests used:
[1] = Crystal; DTA
[2] = Molar enthalpy of transition or fusion; conditions: Crystal; DSC

SMILES | Normal melting temperature [1] [°C] | Molar enthalpy of transition or fusion [2] [kcal/mol]
CCN(C(=O)N(CC)c1ccccc1)c1ccccc1 [1,3-diethyl-1,3-diphenylurea] | 71.87 ± 1.1 | 8.01 ± 0.215
CN(C(=O)N(C)c1ccccc1)c1ccccc1 [1,3-dimethyl-1,3-diphenylurea] | 120.00 ± 1.1 | 7.91 ± 0.215
CC(=O)OCCNc1ccc([N+](=O)[O-])cc1 [2-[(4-nitrophenyl)amino]ethanol 1-acetate] | 113.87 ± 1.1 | 4.97 ± 0.191
CCNc1ccc([N+](=O)[O-])cc1 [N-ethyl-4-nitroaniline] | 95.06 ± 1.1 | 5.43 ± 0.191
c1ccc(Nc2ccccc2)cc1 [diphenylamine] | 53.50 ± 1.1 | 4.71 ± 0.167
